# Source: PubChem BioAssay (NCI)
#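 Following 48 hours of exposure in 96-well plates, responses at five concentrations were used to interpolate endpoints linearly. Abbreviation: GI50, concentration required for 50% inhibition of growth. TGI is the concentration that stops growth completely.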 Where a SMILES comes first, the peptide text is derived from it. [ ]: non-standard residue; d: D form. pGlu = O=C1CC[CH](C(=O)O)N1; Thz = O=C(O)[CH]1CSCN1
# Tests used:
# Experiment in all cases: DTP human tumour cell line panel, 48 h
# A498 renal = tested on: A498 renal
# KM20L2 colon = tested on: KM20L2 colon
# XF 498 CNS = tested on: XF 498 CNS
# DLD-1 colon = tested on: DLD-1 colon
# RXF-631 renal = tested on: RXF-631 renal
# DMS 114 small cell lung = tested on: DMS 114 small cell lung
# DMS 273 small cell lung = tested on: DMS 273 small cell lung
# HOP-18 NSCLC = tested on: HOP-18 NSCLC
# M19-MEL melanoma = tested on: M19-MEL melanoma
# LXFL 529 NSCLC = tested on: LXFL 529 NSCLC
# SNB-78 CNS = tested on: SNB-78 CNS
compound,measurement,setting,value
CO/C=C(/C(=O)OC)[C@@H]1C[C@@H]1c1ccc2ccccc2c1,TGI,A498 renal,> 100 µM
S=C(NCc1ccccc1)Nc1sc(=NCc2ccccc2)nc2sc3c(c12)CCN(N1CCc2c(sc4nc(=NCc5ccccc5)sc(NC(=S)NCc5ccccc5)c24)C1)C3,TGI,A498 renal,> 67.6 µM
CC(=O)OCc1c(O)c2c([nH]c1=O)CCc1ccccc1-2,TGI,KM20L2 colon,263 µM
same,TGI,XF 498 CNS,104 µM
same,TGI,DLD-1 colon,162 µM
same,TGI,RXF-631 renal,149 µM
same,TGI,DMS 114 small cell lung,155 µM
same,TGI,DMS 273 small cell lung,159 µM
same,TGI,HOP-18 NSCLC,295 µM
same,TGI,M19-MEL melanoma,108 µM
same,TGI,LXFL 529 NSCLC,111 µM
CCOC(=O)C12CCC(=O)N1N(C)c1ncccc1N2 (configuration not stated),TGI,A498 renal,> 100 µM
O=c1[nH]c(NCc2cccnc2)nc2nc[nH]c12,TGI,A498 renal,> 100 µM
CC(NC(=O)C1CCC(=O)N1)C(=O)N1CCCC1C(N)=O (stereo not drawn) ([pGlu]-Ala-Pro-NH2; configuration not given here),TGI,A498 renal,> 100 µM
C=C1C(C(=O)OC)[C@H]1C(=O)OC (some centres not stated),TGI,A498 renal,> 100 µM
COC(=O)C1=C(C)NC(=O)N2[C@@H](CCOCc3ccccc3)CC[C@@H]12,TGI,A498 renal,> 50 µM
CC(=O)Nc1nc(C)c(S(=O)(=O)NC(=O)NC2NC(=O)NC2=O)s1 (configuration not stated),TGI,A498 renal,> 100 µM
O=C(Cc1ccc2ccccc2c1)NCc1ccc(C(=O)NCCc2ccccc2)cc1,TGI,A498 renal,> 100 µM
C=C1C2CCC3C4(C)CCCC(C)(C(=O)O)C4CCC3(C2)C1OC(=O)/C(C)=C/C (configuration not stated),TGI,A498 renal,60.4 µM
O=C1CCC(C(=O)N2CSCC2C(=O)O)N1 (configuration not stated) ([pGlu]-[Thz]-OH; configuration not given here),TGI,A498 renal,> 100 µM
O=c1onc2n1-c1ccc(Cl)cc1C(=S)N1CSCC21 (configuration not stated),TGI,A498 renal,64 µM
NC(=S)N1N=C2CCCCCC[C@@H]2[C@H]1c1ccccc1,TGI,A498 renal,> 100 µM
same,TGI,KM20L2 colon,> 100 µM
same,TGI,XF 498 CNS,76.5 µM
same,TGI,DLD-1 colon,> 100 µM
same,TGI,SNB-78 CNS,> 100 µM
same,TGI,DMS 114 small cell lung,> 100 µM
same,TGI,DMS 273 small cell lung,> 100 µM
same,TGI,M19-MEL melanoma,> 100 µM
same,TGI,LXFL 529 NSCLC,> 100 µM
COc1ccc(CCN2CCN(CCCc3ccccc3)CC2)cc1,TGI,A498 renal,> 100 µM
O=[N+]([O-])c1nccn1CC(O)c1ccccc1 (configuration not stated),TGI,A498 renal,> 100 µM
same,TGI,KM20L2 colon,> 100 µM
same,TGI,XF 498 CNS,> 100 µM
same,TGI,DMS 114 small cell lung,> 100 µM
same,TGI,DMS 273 small cell lung,> 100 µM
same,TGI,HOP-18 NSCLC,> 100 µM
same,TGI,LXFL 529 NSCLC,> 100 µM
Cc1ccc2nc3ccccc3c(C3C4C(=O)N(c5ccc(F)cc5)C(=O)C4ON3C(C(N)=O)c3ccccc3)c2c1 (configuration not stated),TGI,A498 renal,> 100 µM
CCCCN(CC)C(=O)C(=O)Cc1nc2ccc(C(=O)c3ccccc3)cc2[nH]c1=O,TGI,A498 renal,> 100 µM
same,TGI,KM20L2 colon,> 100 µM
same,TGI,DLD-1 colon,> 100 µM
same,TGI,SNB-78 CNS,> 100 µM
same,TGI,DMS 114 small cell lung,> 100 µM
same,TGI,DMS 273 small cell lung,> 100 µM
same,TGI,M19-MEL melanoma,> 100 µM
same,TGI,LXFL 529 NSCLC,> 100 µM
COc1ccc(S(=O)(=O)Nc2ccc(-c3csc(N4C(=O)/C(=C/c5ccccc5[N+](=O)[O-])N=C4c4ccccc4)n3)cc2)cc1Cl,TGI,A498 renal,59.8 µM
CC1OC(OC2C(O)COC(OC3C(C)OC(OC4C(OC(=O)[C@]56CCC(C)(C)C[C@@H]5C5=CCC7[C@@]8(C)C[C@H](O)[C@H](OC9OC(CO)C(O)C(O)C9O)[C@@](C)(CO)[C@@H]8CC[C@@]7(C)[C@]5(C)CC6)OCC(O)C4O)C(O)C3O)C2O)C(O)C(O)C1O (some centres not stated),TGI,A498 renal,36 µM
O=c1[nH]c(Nc2ccc(Br)c(C(F)(F)F)c2)nc2nc[nH]c12,TGI,A498 renal,> 100 µM
Cn1c(-c2ccco2)ccc1-c1ccc(C=O)o1,TGI,A498 renal,> 100 µM
FC1(F)ON2CCc3ccccc3C2[C@H]1c1ccccc1 (some centres not stated),GI50,A498 renal,> 100 µM
same,TGI,A498 renal,> 100 µM
Cc1nc(-c2ccccc2)cn2c1nc1ccccc12,TGI,A498 renal,23.5 µM
COC(=O)[C@H](Cc1ccccc1)NC(=O)c1ccc(CNC(=O)/C=C/c2ccc(OCc3ccccc3)cc2)cc1,TGI,A498 renal,21.4 µM
COc1cc(C2C=C(c3ccccc3)Oc3cc4c(cc32)OCO4)cc(OC)c1OC (configuration not stated),TGI,A498 renal,> 100 µM
CN(C)CCNc1ccc2ncn3c4ccc(O)cc4c(=O)c1c23,TGI,A498 renal,8.04 µM
same,TGI,KM20L2 colon,12.9 µM
same,TGI,XF 498 CNS,17.1 µM
same,TGI,DLD-1 colon,16.1 µM
same,TGI,SNB-78 CNS,21.4 µM
same,TGI,DMS 114 small cell lung,16.8 µM
same,TGI,DMS 273 small cell lung,12.4 µM
same,TGI,HOP-18 NSCLC,49.6 µM
same,TGI,M19-MEL melanoma,13.1 µM
same,TGI,LXFL 529 NSCLC,14.6 µM
O=C(Nc1ccccc1)N(CCN(Cc1ccccc1)C(=O)Nc1ccccc1)CCN(Nc1ccccc1)C(=O)Nc1ccccc1,TGI,A498 renal,> 100 µM
